The values below come from patent US11427553B2, “Dihydrooxadiazinones” (Bayer Aktiengesellschaft, priority 2017, dated 2022).

In one data set the test system is HEL 92.1.7 cells. Kind of data set: Assay 1 cell proliferation measurement, HEL 92.1.7. It counts as cell-based. Particulars: Homo sapiens, Erythroleukemia, read-out: Anti-proliferation IC50 [nM] HEL 92.1.7.
The subject of a further data set is DK-MG cells. Put plainly: Assay 1 cell proliferation measurement, DK-MG. It counts as cell-based. Particulars: Homo sapiens; Glioblastoma; read-out: Anti-proliferation IC50 [nM] DK-MG.
The next data set relates to CHL-1 cells. Kind of data set: Assay 1 cell proliferation measurement, CHL-1. Type of data set: cell-based. Particulars: Homo sapiens, Melanoma, read-out: Anti-proliferation IC50 [nM] CHL-1.
A further data set deals with human full length PDE3B (Homo sapiens (Human), UniProt Q13370). Put plainly: Assay 5 PDE3B enzyme inhibition (3H-cAMP SPA). It counts as biochemical. Particulars: Sf9 cell extract. Put shortly: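 Hydrolysis of tritiated cAMP by Sf9-expressed full-length human PDE3B proceeded 60 min at room temperature in Tris buffer pH 7.5 containing Mg2+, EDTA and BSA, with enzyme dilution keeping substrate consumption below 70%. IC50 derived from percent activity versus log compound concentration.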

Data set [1] can be described thus: Assay 6 in vitro metabolic stability in cryopreserved human hepatocytes (CL, Fmax). Type of data set: in vitro ADME. Particulars: 1 μM test compound; for Clblood: hepatic in vivo blood clearance calculated (well-stirred) from half-life in cryopreserved human hepatocytes; for Fmax: maximal oral bioavailability calculated from half-life in cryopreserved human hepatocytes. In a few lines: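 Test compound at 1 μM incubated with cryopreserved human hepatocytes (1.0×10^6 viable cells/ml, WME with 5% FCS) under shaking, with samples taken from 2 to 90 min, methanol-quenched and analysed by LC-MS/MS. Half-life gave intrinsic clearance, scaled with liver blood flow and hepatocellularity to CL and Fmax.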

Another data set concerns IGR37 cells. Kind of data set: Assay 1 cell proliferation measurement (CTG, 72 h), IGR37. It counts as cell-based. Particulars: Homo sapiens, IGR-37, Cell Titer Glo, read-out: IGR37 IC50 [nM] (melanoma). On the technique in general: Cellular ATP, detected with luciferase, serves as a proxy for viable cell number.
In a further data set the test system is HeLa cells. Put plainly: Assay 2 cell proliferation measurement, HeLa. Type of data set: cell-based. Particulars: Homo sapiens, Cervical, read-out: Anti-proliferation IC50 [nM] HeLa. As for the experimental part:
(§1) Cell Proliferation Measurement
(§2) The antiproliferative activity of the compounds of the general formula (I) was examined in vitro in human cancer cells. For this purpose, 500 cells, including HeLa cells, A2058 cells, DU145 cells, HMCB cells, IGR37 cells, NCIH1734 cells, OSRC2 cells, or 750 cells, including CAL51 cells, COL0741 cells, DBTRG05MG cells, DKMG cells, G292CLONEA141B1 cells, GB1 cells, HEL cells, HEL9217 cells, JHUEM1 cells, L3.3 cells, LI7 cells, TE4 cells, or 1000 cells, including 8505C cells, HUT78 cells, NCIH1563 cells, NCIH2122 cells, NCIH2172 cells, RVH421 cells, SKMEL3 cells, or 1500 cells, including C32 cells, HS578T cells, JHOM1 cells, NCIH196 cells, OVKATE cells, were plated in 384-well plates with appropriate growth medium and incubated at 37° C. overnight. After 24 h, the cells on the test plate were treated with the compounds of the general formula (I) as and incubated at 37° C. for 72 h. The compounds were added to the cells by means of an HP D300 digital dispenser in a 10 (or more)-step dilution series. As control, the cells were treated with vehicle (DMSO at 0.3% final concentration). After 72 h, the cells were treated with 20 μl/well of 50% CTG solution in PBS (Promega Cell Titer Glo (catalogue #G755B and G756B)) and incubated at room temperature for 10 min, and luminescence was measured by means of a VICTOR V (Perkin Elmer), in order to determine cell viability at the end of treatment. The percentage effect on cell growth and the IC50 derived therefrom were determined for each test substance using the values from untreated wells (=percent viability). The IC50 values were calculated using a 4-parameter fit.

The next data set deals with DKMG cells. Put plainly: Assay 2 cell proliferation measurement, DKMG. It counts as cell-based. As to conditions: Homo sapiens, Glioma_astrocytoma, read-out: Anti-proliferation IC50 [nM] DKMG. On the procedure: as §1, §2
The subject of another data set is SKMEL3 cells. Put plainly: Assay 2 cell proliferation measurement, SKMEL3. Type of data set: cell-based. Particulars: Homo sapiens, SK-MEL3, Melanoma, read-out: Anti-proliferation IC50 [nM] SKMEL3. As for the experimental part:
as §1, §2

Structures are written as SMILES. pIC50: −log10 of the molar value.

Chain of human full length PDE3B (Q13370 whole entry): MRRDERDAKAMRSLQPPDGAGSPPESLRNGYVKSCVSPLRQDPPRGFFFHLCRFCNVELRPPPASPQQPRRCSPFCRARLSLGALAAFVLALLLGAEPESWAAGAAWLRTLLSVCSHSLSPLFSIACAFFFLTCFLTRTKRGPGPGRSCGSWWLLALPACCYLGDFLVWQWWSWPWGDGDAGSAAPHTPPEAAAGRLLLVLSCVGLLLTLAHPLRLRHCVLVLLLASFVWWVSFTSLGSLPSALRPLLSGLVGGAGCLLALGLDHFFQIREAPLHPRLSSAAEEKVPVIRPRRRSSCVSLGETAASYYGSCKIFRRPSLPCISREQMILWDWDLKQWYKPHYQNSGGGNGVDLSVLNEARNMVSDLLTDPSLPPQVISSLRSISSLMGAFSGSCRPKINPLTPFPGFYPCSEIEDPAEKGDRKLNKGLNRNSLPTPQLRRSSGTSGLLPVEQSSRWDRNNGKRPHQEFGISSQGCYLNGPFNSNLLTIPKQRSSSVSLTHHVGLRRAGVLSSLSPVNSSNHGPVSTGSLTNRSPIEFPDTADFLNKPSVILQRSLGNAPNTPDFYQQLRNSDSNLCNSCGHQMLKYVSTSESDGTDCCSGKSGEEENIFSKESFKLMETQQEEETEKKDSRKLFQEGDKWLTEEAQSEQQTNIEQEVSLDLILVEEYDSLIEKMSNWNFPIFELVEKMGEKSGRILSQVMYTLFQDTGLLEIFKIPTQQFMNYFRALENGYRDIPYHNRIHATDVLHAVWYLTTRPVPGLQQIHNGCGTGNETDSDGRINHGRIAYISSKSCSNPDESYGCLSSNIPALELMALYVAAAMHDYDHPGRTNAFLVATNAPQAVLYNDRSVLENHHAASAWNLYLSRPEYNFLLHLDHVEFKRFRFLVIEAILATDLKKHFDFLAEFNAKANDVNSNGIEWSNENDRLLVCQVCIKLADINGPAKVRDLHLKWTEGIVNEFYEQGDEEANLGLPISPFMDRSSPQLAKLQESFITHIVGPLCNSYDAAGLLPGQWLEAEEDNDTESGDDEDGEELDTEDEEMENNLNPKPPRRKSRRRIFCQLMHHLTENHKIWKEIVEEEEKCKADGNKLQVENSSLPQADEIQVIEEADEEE

As a reminder, the pIC50 is the IC50 on a negative log10 scale, so that one unit is a factor of ten. With `O=C1NN=C(c2ccc(-c3ccc(F)cc3)c(C(F)(F)F)c2)CO1` [Example 3, 5-[4′-Fluoro-2-(trifluoromethyl)biphenyl-4-yl]-3,6-dihydro-2H-1,3,4-oxadiazin-2-one], the IC50 with HEL 92.1.7 cells was determined as 25 nM; with DK-MG cells it was 21 nM; in the data set on CHL-1 cells, 9 nM. The compound further showed a pIC50 against human full length PDE3B of 6.71. Besides, the Clblood in data set [1] was 6.5 mL/min/kg. Moreover, the Fmax in [1] is given as 70%.

Consider `O=C1NN=C(c2ccc(-c3ccc(Cl)cc3)c(C(F)(F)F)c2)CO1` [Example 31, 5-[4′-Chloro-2-(trifluoromethyl)biphenyl-4-yl]-3,6-dihydro-2H-1,3,4-oxadiazin-2-one], for which the IC50 with IGR37 cells was 14 nM; in the data set on HEL 92.1.7 cells, 47 nM; in the data set with DK-MG cells, 39 nM; in the data set on CHL-1 cells it was 28 nM. For the same compound, on human full length PDE3B, the negative-log IC50 (pIC50) was 6.22. Besides, the Clblood in [1] was 10.7 mL/min/kg. Also, the Fmax in data set [1] is listed as 52%.

Turning to `C[C@@H]1OC(=O)NN=C1c1ccc(-c2ccc(F)cc2)c(C(F)(F)F)c1` [Example 135, (6S)-5-[4′-Fluoro-2-(trifluoromethyl)biphenyl-4-yl]-6-methyl-3,6-dihydro-2H-1,3,4-oxadiazin-2-one], the IC50 was 3 nM with IGR37 cells, 2 nM in the data set with HeLa cells, 22 nM in the data set on DKMG cells and 5 nM in the data set with SKMEL3 cells. The same compound had a negative logarithm of the IC50 (pIC50) against human full length PDE3B of 7.30. In addition, in data set [1], the Clblood was 16.3 mL/min/kg. For the same compound, the Fmax in data set [1] is listed as 26%.

As to `O=C1NN=C(c2ccc(-c3cnn(C(F)F)c3)c(C(F)(F)F)c2)CO1` [Example 146, 5-{4-[1-(Difluoromethyl)-1H-pyrazol-4-yl]-3-(trifluoromethyl)phenyl}-3,6-dihydro-2H-1,3,4-oxadiazin-2-one], the IC50 in the data set on IGR37 cells was 2 nM; in the data set with HEL 92.1.7 cells, 13 nM; in the data set on DK-MG cells, 12 nM; with CHL-1 cells, 8 nM; in the data set with HeLa cells, 2 nM; in the data set on DKMG cells, 13 nM. Further, the IC50 in the data set with SKMEL3 cells amounted to 3 nM. This compound also gave a pIC50 on human full length PDE3B of 7.10. Moreover, the Clblood in data set [1] was 8.83 mL/min/kg. For the same compound, in [1], the Fmax is listed as 60%.

With `C[C@@H]1OC(=O)NN=C1c1ccc(-n2ccc(C(F)(F)F)n2)c(C(F)(F)F)c1` [Example 265, (6S)-6-Methyl-5-{3-(trifluoromethyl)-4-[3-(trifluoromethyl)-1H-pyrazol-1-yl]phenyl}-3,6-dihydro-2H-1,3,4-oxadiazin-2-one], the IC50 in the data set on IGR37 cells stood at 7 nM; with HeLa cells, 5 nM; in the data set with DKMG cells, 59 nM; with SKMEL3 cells it was 10 nM. For the same compound, in data set [1], the Clblood was 8.5 mL/min/kg. The Fmax in data set [1] is 61%.
